Here are results for six molecules from article PMC10353187, “Discovery of a new potent oxindole multi-kinase inhibitor among a series of designed 3-alkenyl-oxindoles with ancillary carbonic anhydrase inhibitory activity as antiproliferative agents” (BMC Chemistry, 2023).

Holding throughout (assay): NCI-60 single-dose antiproliferative assay (SRB)
Common to all, as to type: cell-based

Experiment [1] concerns CCRF-CEM. The note with it: Homo sapiens, 10 μM single dose, Leukemia, read-out: Cell Growth inhibition Percent. In outline: (§1)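 Single 10 μM dose, 48 h at 37 °C in RPMI 1640 with 5% FBS, cells seeded 24 h before dosing. TCA fixation, sulforhodamine B staining, absorbance 515 nm; percent growth derived against time-zero and untreated control plates, triplicate wells.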
Experiment [2] deals with OVCAR-3. Particulars: Homo sapiens; 10 μM single dose; OVCAR-3, Ovarian Cancer; read-out: Cell Growth inhibition Percent. In outline: as §1
Experiment [3] deals with NCI-H322M. The note with it: Homo sapiens, 10 μM single dose, Non-small cell lung cancer, read-out: Cell Growth inhibition Percent. In a few lines:
as §1

Experiment [4] has as its system SNB-19. Particulars: Homo sapiens; 10 μM single dose; SNB-19, CNS cancer; read-out: Cell Growth inhibition Percent. In outline: as §1
In experiment [5] the test system is DU-145. Particulars: Homo sapiens; 10 μM single dose; DU-145, Prostate cancer; read-out: Cell Growth inhibition Percent. In a few lines: as §1
Experiment [6] concerns HS 578T. The note with it: Homo sapiens, 10 μM single dose, Breast cancer, read-out: Cell Growth inhibition Percent. In outline:
as §1

Experiment [7] relates to TK-10. Particulars: Homo sapiens; 10 μM single dose; TK-10, Renal cancer; read-out: Cell Growth inhibition Percent. In a few lines:
as §1

For the molecule `O=C1Nc2ccccc2C1=CNc1ccc(C(=O)C=CNc2nccs2)cc1` [Compound 13c, 3-{[(4-{3-[Thiazol-2-ylamino]acryloyl}phenyl)amino]methylene}indolin-2-one], the inhibition (as a rule, how much of the control response was suppressed) at 10 µM was 12.1% in experiment [1] and 3.91% in experiment [2].

As for `O=C1Nc2ccccc2C1=CNc1ccc(CNc2ccc(S(=O)(=O)Nc3ncccn3)cc2)cc1` [Compound 11b, 4-{[4-({[2-Oxoindolin-3-ylidene]methyl}amino)benzyl]amino}-N-(pyrimidin-2-yl)benzenesulfonamide], the inhibition at 10 µM in experiment [1] was 25.4%.

On to `NS(=O)(=O)N/C=C1/C(=O)Nc2ccccc21` [Compound 5, 3-(sulfamidmethylene)indoline-2-one], for which the figures for the inhibition at 10 µM in experiment [3] and in experiment [4] were 3.18% and 0.31%, respectively.

For the molecule `NS(=O)(=O)c1ccc(NCc2ccc(NC=C3C(=O)Nc4ccccc43)cc2)cc1` [Compound 11a, 4-{[4-({[2-Oxoindolin-3-ylidene]methyl}amino)benzyl]amino}benzenesulfonamide], the inhibition at 10 µM in experiment [5] worked out at 2.9%.

On to `O=C(Nc1ccc(NC=C2C(=O)Nc3ccccc32)cc1)Nc1nccs1` [Compound 15c, 1-{4-[((2-Oxoindolin-3-ylidene)methyl)amino]phenyl}-3-(thiazol-2-yl)urea], for which the inhibition at 10 µM in experiment [3] was 47.2%; in experiment [6], 68.5%; in experiment [7] it was 24.3%; in experiment [5] it was 59.5%; in experiment [4], 69%; in experiment [2], 84.6%.

As to `O=C1Nc2ccccc2C1=CNc1ccc(C(=O)O)cc1` [Compound 4c, 4-{[(2-Oxoindolin-3-ylidene)methyl]amino}benzoic acid], the inhibition at 10 µM in experiment [6] came to 0.5%; in experiment [7], 19.1%.
